Measurements published in patent US10485550B2, “Ophthalmic drug delivery device and methods of use” (priority 2012, dated 2019).
Several values for one entry are separate records, joined by “and”; a condition that tells them apart may be missing. Equal entries are not always repeated.

System: mouse eye
Test: Intraocular pressure (TonoLab) in mice after injection of ethacrynic acid, with or without healon, into the episcleral vein
Format: in vivo
Description: Basline intraocular pressures were measured in both eyes of the mouse using a TonoLab device. A piece of a latex glove was placed over the equator of the mouse eye. Initially, a glass microcannula was used to inject either (a) a solution of ethacrynic acid alone or (b) saline into the episcleral vein at the limbus of the right eye of each mouse. The solution or saline was injected until blanching was observed 360 degrees around the limbus. The piece of latex was then removed from the eye. Intraocular pressures were then measured daily and then weekly in both eyes of all mice. The ethacrynic acid injection alone produced its most profound effect at day 2; however, some effect was maintained until day 7. The results of the above protocol are provided in Table 1, and also shown in FIG. 4, where ethacrynic acid is noted as ECA (squares), saline control is BSS (triangles), and non-treated control is control (diamonds).
Next, ethacrynic acid was combined with healon in a 3:1 ratio. Again, a glass microcannula was used to inject either the ethacrynic acid/healon solution or BSS solution as the control. The ethacrynic acid/healon solution produced its most profound effect at 2 weeks but lasted 3 weeks. The results are provided in Table 2 and also shown in FIG. 3, where ethacrynic acid/healon is designated with squares, BSS as diamonds, and non injected controls as triangles.

[1] = ethacrynic acid injection alone, episcleral vein, mouse

## C=C(CC)C(=O)c1ccc(OCC(=O)O)c(Cl)c1Cl [ECA, [2,3-dichloro-4-(2-methylene-1-oxobutyl)phenoxy]acetic acid]
FIG. 5
  Reduction of intraocular pressure (IOP) versus control: reduces intraocular pressure (IOP) greater than control
Table 1, ethacrynic acid alone, 1 wk
  Animal status (mouse ECA6): dead
Table 2, ethacrynic acid combined with healon 3:1, episcleral vein injection, 1 day
  Intraocular pressure, OD, individual mouse: 14 and 13 (2×) and 9 (2×)
Table 2, ethacrynic acid combined with healon 3:1, episcleral vein injection, 1 day, group avg (0 hr base avg 16.6)
  Avg. intraocular pressure, OD: 12.25
Table 2, ethacrynic acid combined with healon 3:1, episcleral vein injection, 2 day
  Intraocular pressure, OD, individual mouse: 12 (2×) and 19 (2×) and 22 and 16
Table 2, ethacrynic acid combined with healon 3:1, episcleral vein injection, 2 day, group avg
  Avg. intraocular pressure, OD: 16.8
Table 2, ethacrynic acid combined with healon 3:1, episcleral vein injection, 5 day
  Intraocular pressure, OD, individual mouse: 13 and 8 and 17 and 14 and 16 and 10
Table 2, ethacrynic acid combined with healon 3:1, episcleral vein injection, 5 day, group avg
  Avg. intraocular pressure, OD: 13.6
Table 2, ethacrynic acid combined with healon 3:1, episcleral vein injection, 7 day
  Intraocular pressure, OD, individual mouse: 10 (3×) and 9 and 7 and 20
Table 2, ethacrynic acid combined with healon 3:1, episcleral vein injection, 7 day, group avg
  Avg. intraocular pressure, OD: 11.2
Table 2, ethacrynic acid combined with healon 3:1, episcleral vein injection, 14 day
  Intraocular pressure, OD, individual mouse: 16 and 12 and 14 and 18 (2×)
Table 2, ethacrynic acid combined with healon 3:1, episcleral vein injection, 14 day, group avg
  Avg. intraocular pressure, OD: 15
Table 2, ethacrynic acid combined with healon 3:1, episcleral vein injection, 21 day
  Intraocular pressure, OD, individual mouse: 16 and 7 and 14 (2×) and 8
Table 2, ethacrynic acid combined with healon 3:1, episcleral vein injection, 21 day, group avg
  Avg. intraocular pressure, OD: 12.75
Table 2, ethacrynic acid combined with healon 3:1, episcleral vein injection, 35 day
  Intraocular pressure, OD, individual mouse: 11 and 8 and 15 and 17 and 14
Table 2, ethacrynic acid combined with healon 3:1, episcleral vein injection, 35 day, group avg
  Avg. intraocular pressure, OD: 12.75
Table 2, ethacrynic acid combined with healon 3:1, episcleral vein injection, 42 day
  Intraocular pressure, OD, individual mouse: 15 and 12 (2×) and 8 and 11
Table 2, ethacrynic acid combined with healon 3:1, episcleral vein injection, 42 day, group avg
  Avg. intraocular pressure, OD: 14.11
Table 2, ethacrynic acid combined with healon 3:1, episcleral vein injection, 56 day
  Intraocular pressure, OD, individual mouse: 13 and 10 (2×) and 7 and 17
Table 2, ethacrynic acid combined with healon 3:1, episcleral vein injection, 56 day, group avg
  Avg. intraocular pressure, OD: 13.47
Table 2, ethacrynic acid combined with healon 3:1, episcleral vein injection, 64 day
  Intraocular pressure, OD, individual mouse: 16 and 12 and 9 and 15 and 14
Table 2, ethacrynic acid combined with healon 3:1, episcleral vein injection, 64 day, group avg
  Avg. intraocular pressure, OD: 13.83
Table 2, ethacrynic acid combined with healon 3:1, episcleral vein injection, 74 day (first 74 day column pair)
  Intraocular pressure, OD, individual mouse: 19 and 14 and 17 and 18
Table 2, ethacrynic acid combined with healon 3:1, episcleral vein injection, 74 day (first 74 day column pair), group avg
  Avg. intraocular pressure, OD: 17
Table 2, ethacrynic acid combined with healon 3:1, episcleral vein injection, 74 day (second 74 day column pair)
  Intraocular pressure, OD, individual mouse: 17 and 11 and 16 (2×)
Table 2, ethacrynic acid combined with healon 3:1, episcleral vein injection, 74 day (second 74 day column pair), group avg
  Avg. intraocular pressure, OD: 19
Table 2, 14 day
  Animal status (mouse ECA6): dead
Ethacrynic acid alone, episcleral vein injection right eye, 1 wk
  Intraocular pressure, OD, individual mouse: 16 and 12 and 14 and 18
Ethacrynic acid alone, episcleral vein injection right eye, 1 wk, group avg (0 hr base avg 16.6)
  Avg. intraocular pressure, OD: 15
Ethacrynic acid alone, episcleral vein injection right eye, 1 day
  Intraocular pressure, OD, individual mouse: 14 and 13 (2×) and 9
Ethacrynic acid alone, episcleral vein injection right eye, 1 day, group avg (0 hr base avg 16.6)
  Avg. intraocular pressure, OD: 12.25
Ethacrynic acid alone, episcleral vein injection right eye, 2 day
  Intraocular pressure, OD, individual mouse: 12 (2×) and 19 (2×) and 22
Ethacrynic acid alone, episcleral vein injection right eye, 2 day, group avg (0 hr base avg 16.6)
  Avg. intraocular pressure, OD: 16.8
Ethacrynic acid alone, episcleral vein injection right eye, 5 day
  Intraocular pressure, OD, individual mouse: 13 and 8 and 17 and 14 and 16
Ethacrynic acid alone, episcleral vein injection right eye, 5 day, group avg (0 hr base avg 16.6)
  Avg. intraocular pressure, OD: 13.6
Ethacrynic acid alone, episcleral vein injection right eye, 6 day
  Intraocular pressure, OD, individual mouse: 10 (2×) and 9 and 7 and 20
Ethacrynic acid alone, episcleral vein injection right eye, 6 day, group avg (0 hr base avg 16.6)
  Avg. intraocular pressure, OD: 11.2
[1]
  Effect on intraocular pressure maintained until: 7 days
  Time of most profound effect on intraocular pressure: 2 days
